Results reported in ChEMBL document CHEMBL1138857, “Quinol-4-ones as steroid A-ring mimetics in nonsteroidal dissociated glucocorticoid agonists” (J Med Chem, 2006).

Assays:
[1] = test system: HFF; assay: Inhibition of IL1-stimulated IL6 production in HFF cells relative to Dexamethasone; format: functional, Homo sapiens
[2] = target: T1, Progesterone receptor (Homo sapiens, UniProt P06401); assay: Inhibition of tetramethylrhodamine labeled RU486 binding to PR by FP assay
T1 sequence (P06401 whole entry): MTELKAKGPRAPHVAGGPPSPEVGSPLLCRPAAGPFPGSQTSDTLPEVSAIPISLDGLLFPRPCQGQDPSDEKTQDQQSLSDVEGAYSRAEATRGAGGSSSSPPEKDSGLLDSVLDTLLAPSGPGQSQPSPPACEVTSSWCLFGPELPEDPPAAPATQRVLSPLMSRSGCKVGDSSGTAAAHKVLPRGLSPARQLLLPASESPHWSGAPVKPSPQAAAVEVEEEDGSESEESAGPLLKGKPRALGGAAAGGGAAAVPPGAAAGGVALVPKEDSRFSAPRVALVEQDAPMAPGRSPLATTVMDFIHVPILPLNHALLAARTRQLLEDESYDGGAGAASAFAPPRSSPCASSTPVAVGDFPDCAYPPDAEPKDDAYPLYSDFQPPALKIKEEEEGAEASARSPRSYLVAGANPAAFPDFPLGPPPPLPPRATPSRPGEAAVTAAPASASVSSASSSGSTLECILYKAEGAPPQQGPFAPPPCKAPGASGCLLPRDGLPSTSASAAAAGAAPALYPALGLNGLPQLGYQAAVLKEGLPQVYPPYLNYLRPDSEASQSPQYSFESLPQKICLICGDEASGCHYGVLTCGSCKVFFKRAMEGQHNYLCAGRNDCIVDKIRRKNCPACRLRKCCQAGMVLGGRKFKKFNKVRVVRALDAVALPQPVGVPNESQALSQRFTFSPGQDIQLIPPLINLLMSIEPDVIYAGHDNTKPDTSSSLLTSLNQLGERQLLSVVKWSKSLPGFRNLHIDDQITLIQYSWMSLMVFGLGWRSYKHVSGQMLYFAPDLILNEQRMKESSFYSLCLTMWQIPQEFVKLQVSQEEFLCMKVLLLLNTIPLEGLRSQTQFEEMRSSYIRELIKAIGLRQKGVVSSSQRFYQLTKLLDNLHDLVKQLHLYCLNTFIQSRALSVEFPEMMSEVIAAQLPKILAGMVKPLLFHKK

[3] = target: T2, Mineralocorticoid receptor (Homo sapiens, UniProt P08235); assay: Inhibition of tetramethylrhodamine labeled dexamethasone binding to MR by FP assay
T2 sequence (P08235 whole entry): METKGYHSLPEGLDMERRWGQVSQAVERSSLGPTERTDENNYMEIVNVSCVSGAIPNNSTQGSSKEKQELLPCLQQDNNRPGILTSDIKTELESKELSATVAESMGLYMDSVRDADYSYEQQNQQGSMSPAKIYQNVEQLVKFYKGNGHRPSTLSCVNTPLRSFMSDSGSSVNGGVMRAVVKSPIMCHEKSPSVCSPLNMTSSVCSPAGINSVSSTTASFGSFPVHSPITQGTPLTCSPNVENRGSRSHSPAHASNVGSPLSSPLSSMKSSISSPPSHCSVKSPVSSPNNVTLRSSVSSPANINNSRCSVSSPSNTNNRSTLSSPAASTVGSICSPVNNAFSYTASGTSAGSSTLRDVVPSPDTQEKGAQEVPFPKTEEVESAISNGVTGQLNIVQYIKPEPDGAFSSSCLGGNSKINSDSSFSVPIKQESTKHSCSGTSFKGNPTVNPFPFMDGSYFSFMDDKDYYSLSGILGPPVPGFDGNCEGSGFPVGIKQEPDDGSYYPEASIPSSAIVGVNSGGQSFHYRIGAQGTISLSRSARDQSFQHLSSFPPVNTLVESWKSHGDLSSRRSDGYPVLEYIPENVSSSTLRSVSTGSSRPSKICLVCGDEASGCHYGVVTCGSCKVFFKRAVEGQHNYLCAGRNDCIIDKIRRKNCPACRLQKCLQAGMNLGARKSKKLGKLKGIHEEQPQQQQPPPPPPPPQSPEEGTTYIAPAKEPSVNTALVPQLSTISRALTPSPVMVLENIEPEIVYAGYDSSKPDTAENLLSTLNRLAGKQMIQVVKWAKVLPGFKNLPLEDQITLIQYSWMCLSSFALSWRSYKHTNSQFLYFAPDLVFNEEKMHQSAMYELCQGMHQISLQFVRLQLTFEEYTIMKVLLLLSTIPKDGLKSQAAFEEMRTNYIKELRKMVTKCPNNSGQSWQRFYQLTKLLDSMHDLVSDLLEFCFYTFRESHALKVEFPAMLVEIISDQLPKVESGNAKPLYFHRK

[4] = test system: HFF; assay: Inhibition of IL1-stimulated IL6 production in HFF cells; format: functional, cell-based; conditions: Homo sapiens
[5] = target: T3, Glucocorticoid receptor (Homo sapiens, UniProt P04150)
T3 sequence (P04150 whole entry): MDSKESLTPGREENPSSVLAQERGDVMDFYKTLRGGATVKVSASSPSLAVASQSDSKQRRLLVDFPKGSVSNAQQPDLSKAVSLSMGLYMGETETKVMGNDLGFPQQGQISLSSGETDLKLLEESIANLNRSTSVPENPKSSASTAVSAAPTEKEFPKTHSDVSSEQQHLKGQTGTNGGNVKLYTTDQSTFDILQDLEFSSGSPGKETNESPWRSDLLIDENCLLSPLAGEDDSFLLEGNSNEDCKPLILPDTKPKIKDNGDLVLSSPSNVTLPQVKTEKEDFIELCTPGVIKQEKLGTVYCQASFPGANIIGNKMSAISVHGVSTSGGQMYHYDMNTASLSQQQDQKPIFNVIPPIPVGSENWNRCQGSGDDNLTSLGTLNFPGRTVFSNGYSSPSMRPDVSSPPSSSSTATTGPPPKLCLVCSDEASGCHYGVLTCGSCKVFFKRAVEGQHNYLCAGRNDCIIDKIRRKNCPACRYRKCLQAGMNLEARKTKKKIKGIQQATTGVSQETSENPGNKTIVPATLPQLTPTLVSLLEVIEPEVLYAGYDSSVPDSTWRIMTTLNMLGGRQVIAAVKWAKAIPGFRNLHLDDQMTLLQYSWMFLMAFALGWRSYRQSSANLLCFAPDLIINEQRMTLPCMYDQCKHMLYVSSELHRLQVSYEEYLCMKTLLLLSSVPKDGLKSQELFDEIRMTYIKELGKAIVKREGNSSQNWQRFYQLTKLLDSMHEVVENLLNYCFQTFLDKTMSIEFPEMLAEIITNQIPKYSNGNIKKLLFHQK

[6] = test system: HeLa; assay: Activation of MMTV in HeLa cells measured by luciferase activity; format: functional, cell-based; conditions: Homo sapiens
[7] = test system: HFF; assay: Induction of aromatase activity in HFF cells assessed as production of beta estradiol by aromatase assay relative to Dexamethasone; format: functional, Homo sapiens
[8] = test system: HeLa; assay: Activation of MMTV in HeLa cells measured by luciferase activity relative to Dexamethasone; format: functional, Homo sapiens
[9] = test system: HFF; assay: Induction of aromatase activity in HFF cells assessed as production of beta estradiol by aromatase assay; format: functional, cell-based; conditions: Homo sapiens
[10] = test system: Mus musculus; assay: Inhibition of LPS-stimulated TNFalpha production in BALB/c mouse at 10 mg/kg, po; format: functional

| IC50 [2] | IC50 [3] | IC50 [5] | EC50 [6] | SMILES | Efficacy [1] | IC50 [4] | Efficacy [7] | Efficacy [8] | EC50 [9] | inhibition in vivo at 10 mg/kg [10] |
| --- | --- | --- | --- | --- | --- | --- | --- | --- | --- | --- |
| 525 nM | 91 nM | 11 nM | > 2000 nM | COc1ccc(C)c(C(C)(C)CC(O)(Cn2ccc(=O)c3ccccc32)C(F)(F)F)c1 (centres undefined) | 86% | 17 nM | 65% | 6% | 95 nM |  |
| 160 nM | 160 nM | 8 nM |  | Cc1ccc(O)c(C(C)(C)CC(O)(Cn2ccc(=O)c3ccccc32)C(F)(F)F)c1 (centres undefined) | 93% | 5.6 nM |  |  |  |  |
| 48 nM | 98 nM | 4 nM |  | CC(C)(CC(O)(Cn1ccc(=O)c2ccccc21)C(F)(F)F)c1cccc2c1OCC2 (centres undefined) | 86% | 11 nM | 60% |  |  | 49% |
|  |  | 48 nM |  | Cc1ccc(F)cc1C(C)(C)CC(O)(Cn1ccc(=O)c2cnccc21)C(F)(F)F (centres undefined) | 59% | 47 nM | 14% |  | > 2000 nM | 58% |
| 106 nM | 350 nM | 28 nM |  | CC(C)(CC(O)(Cn1ccc(=O)c2ccccc21)C(F)(F)F)c1ccccc1 (centres undefined) | 48% | 78 nM |  |  |  |  |
| 555 nM | 450 nM | 6 nM |  | CC(C)(CC(O)(Cn1ccc(=O)c2ccccc21)C(F)(F)F)c1ccccc1O (centres undefined) | 90% | 6 nM |  |  |  |  |
| > 2000 nM | > 2000 nM | 690 nM |  | COc1ccc(F)cc1C(C)(C)CC(O)(Cn1cnc(=O)c2ccccc21)C(F)(F)F (centres undefined) |  |  |  |  |  |  |
| > 2000 nM | 175 nM | 34 nM | > 2000 nM | COc1ccc(F)cc1C(C)(C)CC(O)(Cn1ccc(=O)c2cnccc21)C(F)(F)F (centres undefined) | 72% | 35 nM | 39% | 1% |  |  |
| > 2000 nM | > 2000 nM | 780 nM |  | Cc1ccc(O)cc1C(C)(C)CC(O)(Cn1ccc(=O)c2ccccc21)C(F)(F)F (centres undefined) |  |  |  |  |  |  |

The next lines start with the molecule.

| SMILES | IC50 [2] | IC50 [3] | IC50 [5] | EC50 [6] | Efficacy [1] | IC50 [4] | Efficacy [7] | Efficacy [8] | EC50 [9] | inhibition in vivo at 10 mg/kg [10] |
| --- | --- | --- | --- | --- | --- | --- | --- | --- | --- | --- |
| COc1ccc(F)cc1C(C)(C)CC(O)(CN1C[C@H](C)O[C@@H](C)C1)C(F)(F)F (some centres undefined) | > 2000 nM | 1500 nM | 110 nM |  | 41% | > 2000 nM |  |  |  |  |
| COc1ccc(F)cc1C(C)(C)CC(O)(Cn1cc(C)nc1C)C(F)(F)F (centres undefined) | > 2000 nM | 620 nM | 650 nM |  |  |  |  |  |  |  |
| COc1ccc(F)cc1C(C)(C)CC(O)(CN1CCC(=O)CC1)C(F)(F)F (centres undefined) | > 2000 nM | > 2000 nM | 1400 nM |  |  |  |  |  |  |  |
| COc1ccc(F)cc1C(C)(C)CC(O)(Cn1ccnc1)C(F)(F)F (centres undefined) | > 2000 nM | > 2000 nM | > 2000 nM |  |  |  |  |  |  |  |
| CC(C)(CC(O)(Cn1ccc(=O)c2ccccc21)C(F)(F)F)c1ccc(F)cc1O (centres undefined) | 340 nM | 880 nM | 3 nM | 15 nM | 88% |  | 82% | 35% | 17 nM |  |
| COc1ccc(F)cc1C(C)(C)CC(O)(CN1CCOCC1)C(F)(F)F (centres undefined) | > 2000 nM | > 2000 nM | > 2000 nM |  |  |  |  |  |  |  |
| COc1ccc(F)cc1C(C)(C)CC(O)(Cn1cnc2ccccc21)C(F)(F)F (centres undefined) | > 2000 nM | 775 nM | 54 nM |  | 15% | > 2000 nM |  |  |  |  |
| Cc1cn(CC(O)(CC(C)(C)c2cccc3c2OCC3)C(F)(F)F)cc(C)c1=O (centres undefined) |  |  | 34 nM |  | 77% | 39 nM | 26% |  |  | 49% |
| COc1ccc(F)cc1C(C)(C)CC(O)(C(=O)Nc1ccc2c(=O)onc(C)c2c1)C(F)(F)F (centres undefined) | 22 nM | 130 nM | 8 nM |  | 19% | > 2000 nM |  |  |  |  |
| COc1ccc(F)cc1C(C)(C)CC(O)(CN1CCCc2ccccc21)C(F)(F)F (centres undefined) | > 2000 nM | 1600 nM | 950 nM |  |  |  |  |  |  |  |
| COc1ccc(F)cc1C(C)(C)CC(O)(Cn1ccc(=O)cc1)C(F)(F)F (centres undefined) | > 2000 nM | > 2000 nM | > 2000 nM |  |  |  |  |  |  |  |
| Cc1ccc(F)cc1C(C)(C)CC(O)(Cn1cc(C)c(=O)c(C)c1)C(F)(F)F (centres undefined) |  |  | 125 nM |  | 71% | 70 nM | 20% |  | > 2000 nM | 48% |
| COc1ccc(F)cc1C(C)(C)CC(O)(Cn1ccc(=O)c2ncccc21)C(F)(F)F (centres undefined) | > 2000 nM | 1100 nM | 77 nM |  | 78% | 56 nM | 41% |  |  |  |
| C[C@@H]1C[C@H]2[C@@H]3CCC4=CC(=O)C=C[C@]4(C)[C@@]3(F)[C@@H](O)C[C@]2(C)[C@@]1(O)C(=O)CO [DEXAMETHASONE] | > 2000 nM |  |  | 17 nM |  | 0.51 nM |  |  | 1.9 nM |  |
| Cc1noc(=O)c2ccc(NC(=O)C(O)(CC(C)(C)c3cccc4c3OCC4)C(F)(F)F)cc12 (centres undefined) |  | 38 nM |  | > 2000 nM | 80% | 59 nM | 56% | 14% | 91 nM |  |
| COc1ccc(F)cc1C(C)(C)CC(O)(Cn1cc(C)c(=O)c(C)c1)C(F)(F)F (centres undefined) | > 2000 nM | 1900 nM | 120 nM | > 2000 nM | 87% | 53 nM | 77% | 3% | 170 nM |  |
